Reference: patent US6268385A, “Dry blend pharmaceutical formulations” (priority 2000, dated 2001)
Blank lines part the entries; values can stand above or below the molecule they belong to.

Tests used:
Assay type in all cases: physicochemical
[1] = Solubility assessment as a function of HPβCD concentration
Method: Solubility studies were performed by the addition of a known mass of 5(6)-methoxy-2-[[(4-methoxy-3,5-dimethyl-2-pyridinyl)-methyl]sulfinyl]-1H- benzimidazole and/or HP CD to a given volume of solvent system. Solubilities were determined by observation, as the maximum concentration at which 5(6)-methoxy-2-[[(4-methoxy-3,5-dimethyl-2-pyridinyl)-methyl]sulfinyl]-1H- benzimidazole completely dissolved. Additionally, concentrations of 5(6)-methoxy-2-[[(4-methoxy-3,5-dimethyl-2-pyridinyl)-methyl]sulfinyl]-1H- benzimidazole and HP C D at set molar ratios were solubilized in systems of high pH (adjusted as high as 12.2, with 1N NaOH), the pH was adjusted (using 2N HCl) in a stepwise downward manner until precipitation occurred.
The solubility of 5(6)-methoxy-2-[[(4-methoxy-3,5-dimethyl-2-pyridinyl)-methyl]sulfinyl]-1H- benzimidazole was assessed as a function of HPβCD concentration in water.
The procedure according to Example 86 was repeated except that water with a borate buffer (pH of 8) was employed.
The procedure according to Example 86 was repeated except that water with a phosphate buffer (pH of 11) was employed.

[2] = FT-Raman quantitation of 5-/6-methoxy isomers in omeprazole API, partial least squares
Method: Nicolet Instruments Corp., Madison, Wis.). The present method is conducted in three steps: preparation of standards, establishing a standard curve, and analysis of samples. Typically, a minimum of 4 to 5 standards are prepared. […] In addition to the USP standard, it is necessary to use a standard which is very low in 5-methoxy isomer concentration, preferably in pure form, one which has a high concentration of 5-methoxy isomer such as in the range of about 40%, and a series of at least two other standards distributed over the range from about 5% to about 25%. To establish the standard curve, each standard is run in at least triplicate using the step and repeat sampling device operating in the continuous mode with 15 replicates for each standard preparation and 500 scans per replicate, using a resolution of 2 cm^-1, and a laser power of about 0.7 watt, under instrumental parameters set to generate an acceptable S/N. […] Using such an algorithm, the area percent of the 6-methoxy isomer of each standard having both the 5- and 6-methoxy isomer is determined. The standard deviation for each set of replicates is less than about 0.7% and the average standard deviation for the average of all runs and replicates of a given standard is less than about 0.7% or the resulting data should be investigated. […] Correlation coefficients should be at or above about 0.98 among all standards. Each API sample is then analyzed using the method similar to that described for establishing the standards, except at least triplicate preparations with at least five replicates per sample preparation, and at least 100 scans per replicate with triplicate preparations per sample. Using the above-referenced partial least squares analysis, the percent 6-methoxy isomer, and thus the percent 5-methoxy isomer is determined for each scan and the average of the 15 spectra is calculated. The standard deviation (SD) for each set of replicates is less than about 1.0%, and the average standard deviation of all runs and replicates of a given sample is less than about 1.0%. If the standard deviation is above 1.0%, the results should be investigated. High standard deviation values are an indication of variability which may be caused by small amounts of sample burning. If this is suspected, the preparation should be run again.

[3] = FT-Raman determination of 5-/6-methoxy isomers in omeprazole API, classical least squares; settings: commercial API lots
Method: This method also used an FT-Raman spectrometer (Nicolet Nexus 670 with an FT-Raman accessory, 1064 nm laser, and a step and repeat sampling device). This method, too, is conducted in three stages: preparation of standards, establishing a standard curve, and analysis of samples. Typically a minimum of 4 to 5 standards are prepared. The present FT-Raman method for API and drug product analysis uses the same method set forth above to prepare and establish the standard curve, including preferred aspects, as the method set forth for the more quantitative API method relative to the number of preparations, replicates, and scans per replicate of each standard, resolution, sampling device, deconvolution of standard peaks, determination of peak area, and standard deviation for each set of replicates and the average of all runs and replicates of a given standard. […] In general, the method is performed by a ratio of a peak related to the 6-methoxy isomer (about 1627 cm^-1) to a suitable internal omeprazole band (about 1587 cm^-1). […] Correlation coefficients of the standard curve are at or above about 0.95 among all standards. […] Using the above-referenced corrected classical least squares analysis, the percent 6-methoxy isomer, and thus the percent 5-methoxy isomer, is determined for each scan, and the average of the 15 spectra is calculated.

[4] = commercial API lots, listed as 01
[5] = commercial API lots, listed as 02
[6] = commercial API lots, listed as 03

SMILES: COc1ccc2[nH]c([S+]([O-])Cc3ncc(C)c(OC)c3C)nc2c1 (centres unmarked) [5(6)-methoxy-2-[[(4-methoxy-3,5-dimethyl-2-pyridinyl)-methyl]sulfinyl]-1H-benzimidazole]
solubility as a function of HPβCD concentration ([1]; borate buffer, pH of 8): increase linearly
solubility as a function of HPβCD concentration ([1]; phosphate buffer, pH of 11): increase linearly
solubility as a function of HPβCD concentration ([1]; water): increase linearly

% 5-isomer ([2]; standards): 5.875%
% 6-isomer ([2]; standards): 94.125%
SMILES: COc1ccc2nc([S+]([O-])Cc3ncc(C)c(OC)c3C)[nH]c2c1 (centres unmarked) [Example 1, 6-methoxy-2-[[(4-methoxy-3,5-dimethyl-2-pyridinyl)-methyl]sulfinyl]-1H-benzimidazole]

% 5-isomer ([2]; standards): 0.000%
% 6-isomer ([2]; standards): 100.000%
SMILES: COc1ccc2nc([S+]([O-])Cc3ncc(C)c(OC)c3C)[nH]c2c1 (centres unmarked) [Example 1a, 6-methoxy-2-[[(4-methoxy-3,5-dimethyl-2-pyridinyl)methyl]sulfinyl]-1H-benzimidazole]

SMILES: COc1ccc2[nH]c([S+]([O-])Cc3ncc(C)c(OC)c3C)nc2c1 (centres unmarked) [Example 36, (5)6-methoxy-2-[[(4-methoxy-3,5-dimethyl-2-pyridinyl)-methyl]sulfinyl]-1H-benzimidazole]
% 5-isomer ([2]; standards): 16.005%
% 6-isomer ([2]; standards): 83.995%

SMILES: COc1ccc2[nH]c([S+]([O-])Cc3ncc(C)c(OC)c3C)nc2c1 (centres unmarked) [Example 37, (5)6-methoxy-2-[[(4-methoxy-3,5-dimethyl-2-pyridinyl)-methyl]sulfinyl]-1H-benzimidazole]
% 5-isomer ([2]; standards): 12.246%
% 6-isomer ([2]; standards): 87.754%

SMILES: COc1ccc2[nH]c([S+]([O-])Cc3ncc(C)c(OC)c3C)nc2c1 (centres unmarked) [Example 41, (5)6-methoxy-2-[[(4-methoxy-3,5-dimethyl-2-pyridinyl)-methyl]sulfinyl]-1H-benzimidazole]
% 5-isomer ([2]; standards): 16.414%
% 6-isomer ([2]; standards): 83.587%

SMILES: COc1ccc2[nH]c([S+]([O-])Cc3ncc(C)c(OC)c3C)nc2c1 (centres unmarked) [Example 44, (5)6-methoxy-2-[[(4-methoxy-3,5-dimethyl-2-pyridinyl)-methyl]sulfinyl]-1H-benzimidazole]
% 5-isomer ([2]; standards): 41.258%
% 6-isomer ([2]; standards): 58.742%

SMILES: COc1ccc2[nH]c([S+]([O-])Cc3ncc(C)c(OC)c3C)nc2c1 (centres unmarked) [Lot 01]
% 5-isomer ([3]; listed as 01): 6.14%
% 6-isomer ([3]; listed as 01): 93.86%
% 5-isomer [2, 4]: 7.50%
% 6-isomer [2, 4]: 92.50%

SMILES: COc1ccc2[nH]c([S+]([O-])Cc3ncc(C)c(OC)c3C)nc2c1 (centres unmarked) [Lot 02]
% 5-isomer ([3]; listed as 02): 6.56%
% 6-isomer ([3]; listed as 02): 93.44%
% 5-isomer [2, 5]: 8.02%
% 6-isomer [2, 5]: 91.98%

SMILES: COc1ccc2[nH]c([S+]([O-])Cc3ncc(C)c(OC)c3C)nc2c1 (centres unmarked) [Lot 03]
% 5-isomer ([3]; listed as 03): 6.40%
% 6-isomer ([3]; listed as 03): 93.60%
% 5-isomer [2, 6]: 7.61%
% 6-isomer [2, 6]: 92.39%

SMILES: COc1ccc2[nH]c([S+]([O-])Cc3ncc(C)c(OC)c3C)nc2c1 (centres unmarked) [USP]
% 5-isomer ([2]; standards): 7.250%
% 6-isomer ([2]; standards): 92.750%
